From patent publication US20240358693A1, “METHODS OF TREATING PAIN” (Aisa Pharma, Inc., priority 2023, published 2024)

Test system: participants with SSc-RP
Assay: Scleroderma Health Assessment Questionnaire (SHAQ): disability indices and visual analog scales
Assay type: in vivo, human
Details: PP Population, Part A, SSc patients, sensitivity analysis
Excerpt: The standard, validated, patient reported outcome measures tool for SSc patients, the Scleroderma Health Assessment Questionnaire (SHAQ), will be used to assess the participant qualify of life. Details are attached in the Appendix. The participant quality of life will be scored, and a disability index calculated for each questionnaire completed by the patient at Screening and each in-clinic visit. The absolute change in participant quality of life from baseline to the end of each dosing period will be calculated similar to frequency data as before.
The SHAQ includes a Raynaud's VAS, which will be reported at screening and each in-clinic visit. The absolute change in Raynaud-VAS, assessed by the participants response to the SHAQ question ‘In the past 7 days, how much have your Raynaud's interfered with your daily activities?’ at baseline and the end of each dosing period will be calculated similar to frequency data as before.
The SHAQ is used to calculate a Disability Index to assess the participant qualify of life. The eight categories assessed by the Disability Index are 1) dressing and grooming, 2) arising, 3) eating, 4) walking, 5) hygiene, 6) reach, 7) grip, and 8) common daily activities. For each of these categories, patients report the amount of difficulty they have in performing two or three specific activities.
There are four possible responses for the Disability Index questions: • Without any difficulty=0 • With some difficulty=1 • With much difficulty=2 • Unable to do=3. • The highest score reported by the patient for any component question of the eight categories determines the score for that category. • If a component question is left blank or the response is too ambiguous to assign a score, then the score for that category is determined by the remaining completed question(s). • If all component questions are blank or if more than one answer is given, then follow up with the respondent is required. • If the respondent's mark is between the response columns, then move it to the closest one. If it's directly between the two, move it to the higher one.
Each of the disability items on the SHAQ has a companion aids/devices variable that is used to record what type(s) of assistance, if any, the participant uses for his/her usual activities. These variables (see below) are coded as follows: • 0=No assistance is needed. • 1=A special device is used by the patient in his/her usual activities. • 2=The patient usually needs help from another person. • 3=The patient usually needs BOTH a special device AND help from another person.
The scoring variables and scoring rules permit the computation of two disability indices, the Standard Disability Index and the Alternative Disability Index.
This question results in a new set of category scores that are computed by adjusting the score for each category, if necessary, based on the patient's use of an aid or device or assistance for that category. If either devices and/or help from another person are checked for a category, the score is set to “2”, unless the score is already “3” (i.e., scores of “0” or “1” are increased to “2”). For example, if the highest score for the dressing category is “1”, and the patient says they use a device for dressing, the computed category score would be “2”. The sum of the computed categories scores is then calculated and divided by the number of categories answered. This gives a score in the 0 to 3 range.
The aid and device variables are not used to calculate the alternative disability index; it is calculated by adding the scores for each of the categories and dividing by the number of categories answered. This gives a score in the 0 to 3 range.
The standard, validated, patient reported outcome measures tool for SSc patients, the SHAQ, was collected at the time points specified in the study schedules (FIG. 2 and FIGS. 4A and 4B) to assess the participant's quality of life. The SHAQ included a Raynaud's VAS that will also be reported separately.

[1] = Day 12 vs baseline, Subject 01-110 Day 12 score excluded
[2] = In-Clinic Visit (Day 12), Subject 01-110 Day 12 score excluded

COCCOC(=O)C1=C(C)NC(C)=C(C(=O)OC/C=C/c2ccccc2)C1c1cccc([N+](=O)[O-])c1 (stereo not drawn) [Any Cilnidipine]
SHAQ Visual Analogue Scale - Raynaud’s, Change from Baseline, Min (Day 12 vs baseline): −4.10 | SHAQ Visual Analogue Scale - Raynaud’s, Change from Baseline, Q1 (Day 12 vs baseline): −1.000 | SHAQ Visual Analogue Scale - Raynaud’s, Change from Baseline, Q3 (Day 12 vs baseline): 0.000 | SHAQ Visual Analogue Scale - Raynaud’s, Percent Change from Baseline, Max (Day 12 vs baseline): 136.4% | SHAQ Visual Analogue Scale - Raynaud’s, Percent Change from Baseline, Mean (Day 12 vs baseline): −20.44% | SHAQ Visual Analogue Scale - Raynaud’s, Percent Change from Baseline, Median (Day 12 vs baseline): −33.33% | SHAQ Visual Analogue Scale - Raynaud’s, Percent Change from Baseline, Min (Day 12 vs baseline): −100.0% | SHAQ Visual Analogue Scale - Raynaud’s, Percent Change from Baseline, Q1 (Day 12 vs baseline): −50.62% | SHAQ Visual Analogue Scale - Raynaud’s, Percent Change from Baseline, Q3 (Day 12 vs baseline): 0.00% | SHAQ Visual Analogue Scale - Breathing Problems, Change from Baseline, Max [1]: 3.70 | SHAQ Visual Analogue Scale - Breathing Problems, Change from Baseline, Mean [1]: 0.025 | SHAQ Visual Analogue Scale - Breathing Problems, Change from Baseline, Median [1]: 0.000 | SHAQ Visual Analogue Scale - Breathing Problems, Change from Baseline, Min [1]: −2.00 | SHAQ Visual Analogue Scale - Breathing Problems, Change from Baseline, Q1 [1]: −0.700 | SHAQ Visual Analogue Scale - Breathing Problems, Change from Baseline, Q3 [1]: 0.450 | SHAQ Visual Analogue Scale - Breathing Problems, Percent Change from Baseline, Max [1]: 600.0% | SHAQ Visual Analogue Scale - Breathing Problems, Percent Change from Baseline, Mean [1]: 50.12% | SHAQ Visual Analogue Scale - Breathing Problems, Percent Change from Baseline, Median [1]: −16.00% | SHAQ Visual Analogue Scale - Breathing Problems, Percent Change from Baseline, Min [1]: −100.0% | SHAQ Visual Analogue Scale - Breathing Problems, Percent Change from Baseline, Q1 [1]: −75.00% | SHAQ Visual Analogue Scale - Breathing Problems, Percent Change from Baseline, Q3 [1]: 115.63% | SHAQ Alternative Disability Index, Max (In-Clinic Visit (Day 12)): 1.50 | SHAQ Alternative Disability Index, Mean (In-Clinic Visit (Day 12)): 0.450 | SHAQ Alternative Disability Index, Median (In-Clinic Visit (Day 12)): 0.250 | SHAQ Alternative Disability Index, Min (In-Clinic Visit (Day 12)): 0.00 | SHAQ Alternative Disability Index, Q1 (In-Clinic Visit (Day 12)): 0.000 | SHAQ Alternative Disability Index, Q3 (In-Clinic Visit (Day 12)): 0.714 | SHAQ Visual Analogue Scale - Finger Ulcers, Max (In-Clinic Visit (Day 12)): 5.60 | SHAQ Visual Analogue Scale - Finger Ulcers, Mean (In-Clinic Visit (Day 12)): 0.731 | SHAQ Visual Analogue Scale - Finger Ulcers, Median (In-Clinic Visit (Day 12)): 0.000 | SHAQ Visual Analogue Scale - Finger Ulcers, Min (In-Clinic Visit (Day 12)): 0.00 | SHAQ Visual Analogue Scale - Finger Ulcers, Q1 (In-Clinic Visit (Day 12)): 0.000 | SHAQ Visual Analogue Scale - Finger Ulcers, Q3 (In-Clinic Visit (Day 12)): 0.900 | SHAQ Visual Analogue Scale - Intestinal Problems, Max (In-Clinic Visit (Day 12)): 4.50 | SHAQ Visual Analogue Scale - Intestinal Problems, Mean (In-Clinic Visit (Day 12)): 1.121 | SHAQ Visual Analogue Scale - Intestinal Problems, Median (In-Clinic Visit (Day 12)): 0.600 | SHAQ Visual Analogue Scale - Intestinal Problems, Min (In-Clinic Visit (Day 12)): 0.00 | SHAQ Visual Analogue Scale - Intestinal Problems, Q1 (In-Clinic Visit (Day 12)): 0.000 | SHAQ Visual Analogue Scale - Intestinal Problems, Q3 (In-Clinic Visit (Day 12)): 1.900 | SHAQ Visual Analogue Scale - Overall Disease Severity, Max (In-Clinic Visit (Day 12)): 7.30 | SHAQ Visual Analogue Scale - Overall Disease Severity, Mean (In-Clinic Visit (Day 12)): 2.203 | SHAQ Visual Analogue Scale - Overall Disease Severity, Median (In-Clinic Visit (Day 12)): 1.400 | SHAQ Visual Analogue Scale - Overall Disease Severity, Min (In-Clinic Visit (Day 12)): 0.00 | SHAQ Visual Analogue Scale - Overall Disease Severity, Q1 (In-Clinic Visit (Day 12)): 0.800 | SHAQ Visual Analogue Scale - Overall Disease Severity, Q3 (In-Clinic Visit (Day 12)): 3.050 | SHAQ Visual Analogue Scale - Pain, Max (In-Clinic Visit (Day 12)): 5.50 | SHAQ Visual Analogue Scale - Pain, Mean (In-Clinic Visit (Day 12)): 2.476 | SHAQ Visual Analogue Scale - Pain, Median (In-Clinic Visit (Day 12)): 2.200 | SHAQ Visual Analogue Scale - Pain, Min (In-Clinic Visit (Day 12)): 0.00 | SHAQ Visual Analogue Scale - Pain, Q1 (In-Clinic Visit (Day 12)): 1.000 | SHAQ Visual Analogue Scale - Pain, Q3 (In-Clinic Visit (Day 12)): 3.800 | SHAQ Visual Analogue Scale - Raynaud’s, Max (In-Clinic Visit (Day 12)): 5.20 | SHAQ Visual Analogue Scale - Raynaud’s, Mean (In-Clinic Visit (Day 12)): 2.022 | SHAQ Visual Analogue Scale - Raynaud’s, Median (In-Clinic Visit (Day 12)): 1.400 | SHAQ Visual Analogue Scale - Raynaud’s, Min (In-Clinic Visit (Day 12)): 0.00 | SHAQ Visual Analogue Scale - Raynaud’s, Q1 (In-Clinic Visit (Day 12)): 0.500 | SHAQ Visual Analogue Scale - Raynaud’s, Q3 (In-Clinic Visit (Day 12)): 4.000 | SHAQ Visual Analogue Scale - Breathing Problems, Max [2]: 6.90 | SHAQ Visual Analogue Scale - Breathing Problems, Mean [2]: 1.388 | SHAQ Visual Analogue Scale - Breathing Problems, Median [2]: 0.300 | SHAQ Visual Analogue Scale - Breathing Problems, Min [2]: 0.00 | SHAQ Visual Analogue Scale - Breathing Problems, Q1 [2]: 0.000 | SHAQ Visual Analogue Scale - Breathing Problems, Q3 [2]: 1.800
